Laboratory results: the NIST ThermoML archive (doi:10.1021/je060271a)
Several values for one entry are separate records, joined by “and”; a condition that tells them apart may be missing. Equal values may be shown once. ± gives the expanded uncertainty stated by the source.

Conditions: Liquid, Vibrating tube method

## CCCCCC(=O)OCC(COC(=O)CCCCC)(COC(=O)CCCCC)COC(=O)CCCCC [pentaerythritol tetrahexanoate]
283.15 K, 30604 kPa
  mass density: 1021 ± 1.2 kg/m3
283.15 K, 30620 kPa
  mass density: 1020.9 ± 1.2 kg/m3
283.15 K, 30636 kPa
  mass density: 1020.9 ± 1.2 kg/m3
283.15 K, 30656 kPa
  mass density: 1021.1 ± 1.2 kg/m3
283.15 K, 30672 kPa
  mass density: 1020.9 ± 1.2 kg/m3
283.15 K, 30688 kPa
  mass density: 1021 ± 1.2 kg/m3
283.15 K, 30708 kPa
  mass density: 1020.9 ± 1.2 kg/m3
283.15 K, 30724 kPa
  mass density: 1021 ± 1.2 kg/m3
283.15 K, 30740 kPa
  mass density: 1021 ± 1.2 kg/m3
283.15 K, 30757 kPa
  mass density: 1021 ± 1.2 kg/m3
283.15 K, 30777 kPa
  mass density: 1020.9 ± 1.2 kg/m3
283.15 K, 30793 kPa
  mass density: 1021.1 ± 1.2 kg/m3
283.15 K, 30809 kPa
  mass density: 1021 ± 1.2 kg/m3
283.15 K, 30829 kPa
  mass density: 1021 ± 1.2 kg/m3
283.15 K, 30846 kPa
  mass density: 1021.1 ± 1.2 kg/m3
283.15 K, 30882 kPa
  mass density: 1021 ± 1.2 kg/m3
283.15 K, 30934 kPa
  mass density: 1021.1 ± 1.2 kg/m3
283.15 K, 30951 kPa
  mass density: 1021.1 ± 1.2 kg/m3
283.15 K, 30967 kPa
  mass density: 1021.1 ± 1.2 kg/m3
283.15 K, 30987 kPa
  mass density: 1021 ± 1.2 kg/m3
283.15 K, 31003 kPa
  mass density: 1021.3 ± 1.2 kg/m3
283.15 K, 31020 kPa
  mass density: 1021.2 ± 1.2 kg/m3
283.15 K, 31040 kPa
  mass density: 1021.1 ± 1.2 kg/m3
283.15 K, 31056 kPa
  mass density: 1021.2 ± 1.2 kg/m3
283.15 K, 31073 kPa
  mass density: 1021.1 ± 1.2 kg/m3
283.15 K, 31093 kPa
  mass density: 1021.1 ± 1.2 kg/m3
283.15 K, 31110 kPa
  mass density: 1021.1 ± 1.2 kg/m3
283.15 K, 31127 kPa
  mass density: 1021.2 ± 1.2 kg/m3
283.15 K, 31147 kPa
  mass density: 1021.2 ± 1.2 kg/m3
283.15 K, 31164 kPa
  mass density: 1021.2 ± 1.2 kg/m3
283.15 K, 31180 kPa
  mass density: 1021.2 ± 1.2 kg/m3
283.15 K, 31201 kPa
  mass density: 1021.3 ± 1.2 kg/m3
283.15 K, 31217 kPa
  mass density: 1021.3 ± 1.2 kg/m3
283.15 K, 31234 kPa
  mass density: 1021.3 ± 1.2 kg/m3
283.15 K, 31254 kPa
  mass density: 1021.3 ± 1.2 kg/m3
283.15 K, 31272 kPa
  mass density: 1021.2 ± 1.2 kg/m3
283.15 K, 31289 kPa
  mass density: 1021.2 ± 1.2 kg/m3
283.15 K, 31306 kPa
  mass density: 1021.2 ± 1.2 kg/m3
283.15 K, 31327 kPa
  mass density: 1021.3 ± 1.2 kg/m3
283.15 K, 31343 kPa
  mass density: 1021.3 ± 1.2 kg/m3
283.15 K, 31361 kPa
  mass density: 1021.3 ± 1.2 kg/m3
283.15 K, 31378 kPa
  mass density: 1021.3 ± 1.2 kg/m3
283.15 K, 31398 kPa
  mass density: 1021.4 ± 1.2 kg/m3
283.15 K, 31415 kPa
  mass density: 1021.3 ± 1.2 kg/m3
283.15 K, 31432 kPa
  mass density: 1021.4 ± 1.2 kg/m3
283.15 K, 31453 kPa
  mass density: 1021.5 ± 1.2 kg/m3
283.15 K, 31470 kPa
  mass density: 1021.4 ± 1.2 kg/m3
283.15 K, 31488 kPa
  mass density: 1021.5 ± 1.2 kg/m3
283.15 K, 31509 kPa
  mass density: 1021.5 ± 1.2 kg/m3
283.15 K, 31528 kPa
  mass density: 1021.5 ± 1.2 kg/m3
283.15 K, 31545 kPa
  mass density: 1021.6 ± 1.2 kg/m3
283.15 K, 31562 kPa
  mass density: 1021.5 ± 1.2 kg/m3
283.15 K, 31583 kPa
  mass density: 1021.3 ± 1.2 kg/m3
283.15 K, 31600 kPa
  mass density: 1021.4 ± 1.2 kg/m3
283.15 K, 31618 kPa
  mass density: 1021.5 ± 1.2 kg/m3
283.15 K, 31639 kPa
  mass density: 1021.5 ± 1.2 kg/m3
283.15 K, 31656 kPa
  mass density: 1021.5 ± 1.2 kg/m3
283.15 K, 31674 kPa
  mass density: 1021.5 ± 1.2 kg/m3
283.15 K, 31691 kPa
  mass density: 1021.5 ± 1.2 kg/m3
283.15 K, 31712 kPa
  mass density: 1021.6 ± 1.2 kg/m3
283.15 K, 31730 kPa
  mass density: 1021.4 ± 1.2 kg/m3
283.15 K, 31748 kPa
  mass density: 1021.6 ± 1.2 kg/m3
283.15 K, 31770 kPa
  mass density: 1021.4 ± 1.2 kg/m3
283.15 K, 31787 kPa
  mass density: 1021.5 ± 1.2 kg/m3
283.15 K, 31805 kPa
  mass density: 1021.5 ± 1.2 kg/m3
283.15 K, 31823 kPa
  mass density: 1021.6 ± 1.2 kg/m3
283.15 K, 31845 kPa
  mass density: 1021.5 ± 1.2 kg/m3
283.15 K, 31863 kPa
  mass density: 1021.6 ± 1.2 kg/m3
283.15 K, 31881 kPa
  mass density: 1021.5 ± 1.2 kg/m3
283.15 K, 31902 kPa
  mass density: 1021.5 ± 1.2 kg/m3
283.15 K, 31920 kPa
  mass density: 1021.4 ± 1.2 kg/m3
283.15 K, 31942 kPa
  mass density: 1021.6 ± 1.2 kg/m3
283.15 K, 31960 kPa
  mass density: 1021.6 ± 1.2 kg/m3
283.15 K, 31978 kPa
  mass density: 1021.7 ± 1.2 kg/m3
283.15 K, 31996 kPa
  mass density: 1021.6 ± 1.2 kg/m3
283.15 K, 32019 kPa
  mass density: 1021.5 ± 1.2 kg/m3
283.15 K, 32037 kPa
  mass density: 1021.7 ± 1.2 kg/m3
283.15 K, 32055 kPa
  mass density: 1021.8 ± 1.2 kg/m3
283.15 K, 32077 kPa
  mass density: 1021.7 ± 1.2 kg/m3
283.15 K, 32096 kPa
  mass density: 1021.6 ± 1.2 kg/m3
283.15 K, 32115 kPa
  mass density: 1021.8 ± 1.2 kg/m3
283.15 K, 32133 kPa
  mass density: 1021.7 ± 1.2 kg/m3
283.15 K, 32156 kPa
  mass density: 1021.6 ± 1.2 kg/m3
283.15 K, 32349 kPa
  mass density: 1021.8 ± 1.2 kg/m3
283.15 K, 32369 kPa
  mass density: 1021.8 ± 1.2 kg/m3
283.15 K, 32386 kPa
  mass density: 1021.7 ± 1.2 kg/m3
283.15 K, 32399 kPa
  mass density: 1021.8 ± 1.2 kg/m3
283.15 K, 32420 kPa
  mass density: 1021.7 ± 1.2 kg/m3
283.15 K, 32436 kPa
  mass density: 1021.9 ± 1.2 kg/m3
283.15 K, 32455 kPa
  mass density: 1022 ± 1.2 kg/m3
283.15 K, 32472 kPa
  mass density: 1022 ± 1.2 kg/m3
283.15 K, 32488 kPa
  mass density: 1021.9 ± 1.2 kg/m3
283.15 K, 32506 kPa
  mass density: 1021.9 ± 1.2 kg/m3
283.15 K, 32526 kPa
  mass density: 1021.9 ± 1.2 kg/m3
283.15 K, 32543 kPa
  mass density: 1022 ± 1.2 kg/m3
283.15 K, 32560 kPa
  mass density: 1021.9 ± 1.2 kg/m3
283.15 K, 32575 kPa
  mass density: 1022 ± 1.2 kg/m3
283.15 K, 32587 kPa
  mass density: 1021.9 ± 1.2 kg/m3
283.15 K, 32601 kPa
  mass density: 1022 ± 1.2 kg/m3
283.15 K, 32613 kPa
  mass density: 1021.9 ± 1.2 kg/m3
283.15 K, 32626 kPa
  mass density: 1021.9 ± 1.2 kg/m3
283.15 K, 32639 kPa
  mass density: 1022 ± 1.2 kg/m3
283.15 K, 32654 kPa
  mass density: 1022 ± 1.2 kg/m3
283.15 K, 32665 kPa
  mass density: 1022 ± 1.2 kg/m3
283.15 K, 32672 kPa
  mass density: 1022 ± 1.2 kg/m3
283.15 K, 32680 kPa
  mass density: 1022 ± 1.2 kg/m3
283.15 K, 32688 kPa
  mass density: 1022.1 ± 1.2 kg/m3
283.15 K, 32694 kPa
  mass density: 1022 ± 1.2 kg/m3
283.15 K, 32703 kPa
  mass density: 1022 ± 1.2 kg/m3
283.15 K, 32708 kPa
  mass density: 1022.1 ± 1.2 kg/m3
283.15 K, 32709 kPa
  mass density: 1022 ± 1.2 kg/m3
283.15 K, 32711 kPa
  mass density: 1021.8 ± 1.2 kg/m3
283.15 K, 32715 kPa
  mass density: 1022 ± 1.2 kg/m3
283.15 K, 32718 kPa
  mass density: 1022 ± 1.2 kg/m3
283.15 K, 32720 kPa
  mass density: 1022 ± 1.2 kg/m3 and 1022.1 ± 1.2 kg/m3
283.15 K, 32723 kPa
  mass density: 1021.9 ± 1.2 kg/m3 and 1022 ± 1.2 kg/m3
283.15 K, 32725 kPa
  mass density: 1021.9 ± 1.2 kg/m3
283.15 K, 32726 kPa
  mass density: 1022 ± 1.2 kg/m3
283.15 K, 32853 kPa
  mass density: 1022 ± 1.2 kg/m3
283.15 K, 32977 kPa
  mass density: 1022.2 ± 1.2 kg/m3
283.15 K, 32981 kPa
  mass density: 1022.1 ± 1.2 kg/m3
283.15 K, 32985 kPa
  mass density: 1022.1 ± 1.2 kg/m3
283.15 K, 32990 kPa
  mass density: 1022.1 ± 1.2 kg/m3
283.15 K, 32992 kPa
  mass density: 1022.2 ± 1.2 kg/m3
283.15 K, 32997 kPa
  mass density: 1022.1 ± 1.2 kg/m3
283.15 K, 33001 kPa
  mass density: 1022.1 ± 1.2 kg/m3
283.15 K, 33005 kPa
  mass density: 1022.2 ± 1.2 kg/m3
283.16 K, 90.5 kPa
  mass density: 1004.1 ± 1.2 kg/m3
283.16 K, 90.7 kPa
  mass density: 1004.2 ± 1.2 kg/m3
283.16 K, 90.8 kPa
  mass density: 1004.2 ± 1.2 kg/m3
283.16 K, 90.9 kPa
  mass density: 1004.1 ± 1.2 kg/m3 and 1004.3 ± 1.2 kg/m3
283.16 K, 91.2 kPa
  mass density: 1004.3 ± 1.2 kg/m3 and 1004.2 ± 1.2 kg/m3
283.16 K, 91.4 kPa
  mass density: 1004.1 ± 1.2 kg/m3 and 1004.2 ± 1.2 kg/m3 and 1004 ± 1.2 kg/m3
283.16 K, 91.5 kPa
  mass density: 1004.1 ± 1.2 kg/m3 and 1004.2 ± 1.2 kg/m3
283.16 K, 91.7 kPa
  mass density: 1004.2 ± 1.2 kg/m3 and 1004.1 ± 1.2 kg/m3
283.16 K, 91.9 kPa
  mass density: 1004.2 ± 1.2 kg/m3
283.16 K, 92.1 kPa
  mass density: 1004.3 ± 1.2 kg/m3
283.16 K, 92.2 kPa
  mass density: 1004.2 ± 1.2 kg/m3 and 1004.1 ± 1.2 kg/m3
283.16 K, 92.4 kPa
  mass density: 1004.2 ± 1.2 kg/m3
283.16 K, 92.6 kPa
  mass density: 1004.2 ± 1.2 kg/m3
283.16 K, 92.8 kPa
  mass density: 1004.1 ± 1.2 kg/m3 and 1004.2 ± 1.2 kg/m3 and 1004 ± 1.2 kg/m3
283.16 K, 93.1 kPa
  mass density: 1004.2 ± 1.2 kg/m3 and 1004.1 ± 1.2 kg/m3
283.16 K, 93.3 kPa
  mass density: 1004.1 ± 1.2 kg/m3 and 1004.2 ± 1.2 kg/m3
283.16 K, 93.6 kPa
  mass density: 1004.2 ± 1.2 kg/m3
283.16 K, 93.8 kPa
  mass density: 1004.1 ± 1.2 kg/m3 and 1004.2 ± 1.2 kg/m3
